Laboratory results as given in ChEMBL document CHEMBL3885861, “Open TG-GATES”.

Species: Rattus norvegicus
Assay: Open TG-GATES - Regimen: Single
Assay type: toxicity, organism-based, Sprague-Dawley
Design: regimen Single, gender Male, age 6 weeks
Conditions: in vivo, po, route gavage; for KIDNEY_L / KIDNEY_R / KIDNEY_TOTAL: tissue Kidney; for LIVER: tissue Liver; for ALT / AST / BUN / CRE / DBIL / GLC / IP / K / PL / RALB / TBIL / TC / TG / TP / gamma-GTP / ALP: tissue Plasma
[1] = 0 mg/kg, 3 h, tissue Blood, dose level Control
[2] = 0 mg/kg, 3 h, dose level Control
[3] = 0 mg/kg, 6 h, tissue Blood, dose level Control
[4] = 0 mg/kg, 6 h, dose level Control
[5] = 0 mg/kg, 9 h, tissue Blood, dose level Control
[6] = 0 mg/kg, 9 h, dose level Control
[7] = 0 mg/kg, 24 h, tissue Blood, dose level Control
[8] = 0 mg/kg, 24 h, dose level Control
[9] = 10 mg/kg, 3 h, tissue Blood, dose level Low
[10] = 10 mg/kg, 6 h, tissue Blood, dose level Low
[11] = 10 mg/kg, 9 h, tissue Blood, dose level Low
[12] = 10 mg/kg, 24 h, tissue Blood, dose level Low

CC(C)OC(=O)C(C)(C)Oc1ccc(C(=O)c2ccc(Cl)cc2)cc1 [FENOFIBRATE]
Bas [1]: 0.4%
Eos [1]: 0.8%
Fbg [1]: 289.4 mg/dL
Ht [1]: 39.8%
MCHC [1]: 32.5%
Mono [1]: 4%
RBC [1]: 616.8 x10_4/ul
Ret [1]: 9%
KIDNEY_L [2]: 0.8 g
KIDNEY_R [2]: 0.8 g
KIDNEY_TOTAL [2]: 1.5 g
LIVER [2]: 7.9 g
ALT [2]: 48.4 IU/L
AST [2]: 83 IU/L
BUN [2]: 9 mg/dL
CRE [2]: 0.2 mg/dL
DBIL [2]: 0.006 mg/dL
GLC [2]: 182.6 mg/dL
IP [2]: 9.5 mg/dL
K [2]: 4.3 meq/L
PL [2]: 140.8 mg/dL
RALB [2]: 2.4 g/dL
TBIL [2]: 0.048 mg/dL
TC [2]: 77 mg/dL
TG [2]: 41.2 mg/dL
TP [2]: 5.2 g/dL
gamma-GTP [2]: 1.4 IU/L
Bas [3]: 0.4%
Eos [3]: 0.8%
Fbg [3]: 268.2 mg/dL
Ht [3]: 40.1%
MCHC [3]: 32.4%
Mono [3]: 3%
RBC [3]: 599.2 x10_4/ul
Ret [3]: 9.6%
KIDNEY_L [4]: 0.8 g
KIDNEY_R [4]: 0.8 g
KIDNEY_TOTAL [4]: 1.5 g
LIVER [4]: 7.2 g
ALP [4]: 1534.8 IU/L
ALT [4]: 41.8 IU/L
AST [4]: 81.8 IU/L
BUN [4]: 9.6 mg/dL
CRE [4]: 0.2 mg/dL
DBIL [4]: 0.008 mg/dL
GLC [4]: 173.8 mg/dL
IP [4]: 9.7 mg/dL
K [4]: 4.1 meq/L
PL [4]: 142.6 mg/dL
RALB [4]: 2.5 g/dL
TBIL [4]: 0.056 mg/dL
TC [4]: 82.4 mg/dL
TG [4]: 44.6 mg/dL
TP [4]: 5.4 g/dL
gamma-GTP [4]: 1 IU/L
Bas [5]: 0%
Eos [5]: 1%
Fbg [5]: 292.6 mg/dL
Ht [5]: 39.3%
MCHC [5]: 32.3%
Mono [5]: 2.4%
RBC [5]: 584.2 x10_4/ul
Ret [5]: 9.6%
KIDNEY_L [6]: 0.8 g
KIDNEY_R [6]: 0.8 g
KIDNEY_TOTAL [6]: 1.5 g
LIVER [6]: 6.9 g
ALP [6]: 1454.2 IU/L
ALT [6]: 38.6 IU/L
AST [6]: 75.8 IU/L
BUN [6]: 8.4 mg/dL
CRE [6]: 0.2 mg/dL
DBIL [6]: 0.008 mg/dL
GLC [6]: 178.8 mg/dL
IP [6]: 9.5 mg/dL
K [6]: 4 meq/L
PL [6]: 145.8 mg/dL
RALB [6]: 2.4 g/dL
TBIL [6]: 0.058 mg/dL
TC [6]: 83.2 mg/dL
TG [6]: 38.6 mg/dL
TP [6]: 5.2 g/dL
gamma-GTP [6]: 1 IU/L
Bas [7]: 0.2%
Eos [7]: 1%
Fbg [7]: 281.4 mg/dL
Ht [7]: 39.1%
MCHC [7]: 32.7%
Mono [7]: 3%
RBC [7]: 590.8 x10_4/ul
Ret [7]: 9.3%
KIDNEY_L [8]: 0.9 g
KIDNEY_R [8]: 0.8 g
KIDNEY_TOTAL [8]: 1.7 g
LIVER [8]: 9.1 g
ALT [8]: 50.4 IU/L
AST [8]: 77.6 IU/L
CRE [8]: 0.2 mg/dL
DBIL [8]: 0.012 mg/dL
GLC [8]: 186.2 mg/dL
IP [8]: 8.5 mg/dL
K [8]: 4.4 meq/L
PL [8]: 153.6 mg/dL
RALB [8]: 2.6 g/dL
TBIL [8]: 0.04 mg/dL
TC [8]: 82.8 mg/dL
TG [8]: 65 mg/dL
TP [8]: 5.6 g/dL
gamma-GTP [8]: 0.8 IU/L
Bas [9]: 0.2%
Eos [9]: 0.6%
Fbg [9]: 280.8 mg/dL
Ht [9]: 40.3%
MCHC [9]: 32.3%
Mono [9]: 3.6%
RBC [9]: 603 x10_4/ul
Ret [9]: 10.2%
KIDNEY_L (10 mg/kg, 3 h, dose level Low): 0.8 g
KIDNEY_R (10 mg/kg, 3 h, dose level Low): 0.8 g
KIDNEY_TOTAL (10 mg/kg, 3 h, dose level Low): 1.6 g
LIVER (10 mg/kg, 3 h, dose level Low): 7.8 g
ALP (10 mg/kg, 3 h, dose level Low): 1472.8 IU/L
ALT (10 mg/kg, 3 h, dose level Low): 49.4 IU/L
AST (10 mg/kg, 3 h, dose level Low): 83.6 IU/L
BUN (10 mg/kg, 3 h, dose level Low): 9.8 mg/dL
CRE (10 mg/kg, 3 h, dose level Low): 0.2 mg/dL
DBIL (10 mg/kg, 3 h, dose level Low): 0.01 mg/dL
GLC (10 mg/kg, 3 h, dose level Low): 178.4 mg/dL
IP (10 mg/kg, 3 h, dose level Low): 10 mg/dL
K (10 mg/kg, 3 h, dose level Low): 4.2 meq/L
PL (10 mg/kg, 3 h, dose level Low): 140.8 mg/dL
RALB (10 mg/kg, 3 h, dose level Low): 2.4 g/dL
TBIL (10 mg/kg, 3 h, dose level Low): 0.058 mg/dL
TC (10 mg/kg, 3 h, dose level Low): 80.4 mg/dL
TG (10 mg/kg, 3 h, dose level Low): 43 mg/dL
TP (10 mg/kg, 3 h, dose level Low): 5.2 g/dL
gamma-GTP (10 mg/kg, 3 h, dose level Low): 1.4 IU/L
Bas [10]: 0%
Eos [10]: 0.8%
Fbg [10]: 283 mg/dL
Ht [10]: 39.7%
Lym [10]: 69.4%
MCHC [10]: 32%
Mono [10]: 2.6%
RBC [10]: 572.6 x10_4/ul
Ret [10]: 11.1%
KIDNEY_L (10 mg/kg, 6 h, dose level Low): 0.8 g
KIDNEY_R (10 mg/kg, 6 h, dose level Low): 0.8 g
KIDNEY_TOTAL (10 mg/kg, 6 h, dose level Low): 1.6 g
LIVER (10 mg/kg, 6 h, dose level Low): 7.8 g
ALP (10 mg/kg, 6 h, dose level Low): 1504.8 IU/L
ALT (10 mg/kg, 6 h, dose level Low): 43.4 IU/L
AST (10 mg/kg, 6 h, dose level Low): 77.2 IU/L
BUN (10 mg/kg, 6 h, dose level Low): 8.8 mg/dL
CRE (10 mg/kg, 6 h, dose level Low): 0.2 mg/dL
DBIL (10 mg/kg, 6 h, dose level Low): 0.01 mg/dL
GLC (10 mg/kg, 6 h, dose level Low): 180.2 mg/dL
IP (10 mg/kg, 6 h, dose level Low): 10.2 mg/dL
K (10 mg/kg, 6 h, dose level Low): 4.2 meq/L
PL (10 mg/kg, 6 h, dose level Low): 128 mg/dL
RALB (10 mg/kg, 6 h, dose level Low): 2.5 g/dL
TBIL (10 mg/kg, 6 h, dose level Low): 0.056 mg/dL
TC (10 mg/kg, 6 h, dose level Low): 71.6 mg/dL
TG (10 mg/kg, 6 h, dose level Low): 36.8 mg/dL
TP (10 mg/kg, 6 h, dose level Low): 5.4 g/dL
gamma-GTP (10 mg/kg, 6 h, dose level Low): 1.4 IU/L
Bas [11]: 0%
Eos [11]: 1%
Fbg [11]: 283 mg/dL
Ht [11]: 39.6%
MCHC [11]: 32.4%
Mono [11]: 1.4%
RBC [11]: 608.4 x10_4/ul
Ret [11]: 9.5%
KIDNEY_L (10 mg/kg, 9 h, dose level Low): 0.8 g
KIDNEY_R (10 mg/kg, 9 h, dose level Low): 0.8 g
KIDNEY_TOTAL (10 mg/kg, 9 h, dose level Low): 1.6 g
LIVER (10 mg/kg, 9 h, dose level Low): 7 g
ALP (10 mg/kg, 9 h, dose level Low): 1360.4 IU/L
ALT (10 mg/kg, 9 h, dose level Low): 42.4 IU/L
AST (10 mg/kg, 9 h, dose level Low): 77.4 IU/L
BUN (10 mg/kg, 9 h, dose level Low): 7.4 mg/dL
CRE (10 mg/kg, 9 h, dose level Low): 0.1 mg/dL
DBIL (10 mg/kg, 9 h, dose level Low): 0.01 mg/dL
GLC (10 mg/kg, 9 h, dose level Low): 175.2 mg/dL
IP (10 mg/kg, 9 h, dose level Low): 9.8 mg/dL
K (10 mg/kg, 9 h, dose level Low): 3.9 meq/L
PL (10 mg/kg, 9 h, dose level Low): 124 mg/dL
RALB (10 mg/kg, 9 h, dose level Low): 2.4 g/dL
TBIL (10 mg/kg, 9 h, dose level Low): 0.054 mg/dL
TC (10 mg/kg, 9 h, dose level Low): 70.8 mg/dL
TG (10 mg/kg, 9 h, dose level Low): 31.2 mg/dL
TP (10 mg/kg, 9 h, dose level Low): 5.2 g/dL
gamma-GTP (10 mg/kg, 9 h, dose level Low): 0.8 IU/L
Bas [12]: 0%
Eos [12]: 1%
Fbg [12]: 270 mg/dL
Ht [12]: 38.6%
MCHC [12]: 32.4%
Mono [12]: 3.8%
RBC [12]: 590.4 x10_4/ul
Ret [12]: 8.6%
KIDNEY_L (10 mg/kg, 24 h, dose level Low): 0.8 g
KIDNEY_R (10 mg/kg, 24 h, dose level Low): 0.8 g
KIDNEY_TOTAL (10 mg/kg, 24 h, dose level Low): 1.6 g
LIVER (10 mg/kg, 24 h, dose level Low): 9.2 g
ALP (10 mg/kg, 24 h, dose level Low): 1838.8 IU/L
ALT (10 mg/kg, 24 h, dose level Low): 49.2 IU/L
AST (10 mg/kg, 24 h, dose level Low): 76.8 IU/L
BUN (10 mg/kg, 24 h, dose level Low): 14.2 mg/dL
CRE (10 mg/kg, 24 h, dose level Low): 0.2 mg/dL
DBIL (10 mg/kg, 24 h, dose level Low): 0.012 mg/dL
GLC (10 mg/kg, 24 h, dose level Low): 179.6 mg/dL
IP (10 mg/kg, 24 h, dose level Low): 8.6 mg/dL
K (10 mg/kg, 24 h, dose level Low): 4.3 meq/L
PL (10 mg/kg, 24 h, dose level Low): 133.2 mg/dL
RALB (10 mg/kg, 24 h, dose level Low): 2.6 g/dL
TBIL (10 mg/kg, 24 h, dose level Low): 0.04 mg/dL
TC (10 mg/kg, 24 h, dose level Low): 68.8 mg/dL
TG (10 mg/kg, 24 h, dose level Low): 54 mg/dL
TP (10 mg/kg, 24 h, dose level Low): 5.4 g/dL
gamma-GTP (10 mg/kg, 24 h, dose level Low): 1.2 IU/L
